The text below walks through data of ChEMBL document CHEMBL1201862, “PubChem BioAssay data set” (2004).

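Cultured in 96-well plates, cells were exposed to test compound for 48 hours across five concentrations. GI50 = concentration required for 50% inhibition of growth.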 Active and inactive are the calls of the source. Rule as the data show it: active = GI50 up to about 1.1 µM and inactive = higher.

Test systems include MOLT-4; NCI/ADR-RES; OVCAR-3; MDA-N; OVCAR-8; UACC-62; SN12C; SF-295; HOP-92; HT-29; MDA-MB-231; SK-OV-3; CCRF-CEM; ACHN; SW-620; SK-MEL-28; SNB-75; COLO 205; UO-31; TK-10.
Assay in all cases: NCI tumour cell line growth inhibition, 48 h

As to `O=P(O)(CCP(=O)(O)c1ccccc1)c1ccccc1`, the GI50 with MOLT-4, with NCI/ADR-RES, with OVCAR-3, in the test on MDA-N, in the test with OVCAR-8 and in the test on UACC-62 was > 100 µM (inactive) each time. Also, the GI50 in the test on SN12C, in the test with SF-295, with HOP-92, in the test on HT-29, with MDA-MB-231 and in the test on SK-OV-3 was > 100 µM (inactive) in each case. Besides, the GI50 in the test on CCRF-CEM, in the test with ACHN, with SW-620, in the test on SK-MEL-28, with SNB-75 and in the test with COLO 205 was > 100 µM (inactive) throughout. In addition, the GI50 with UO-31 and with TK-10 was > 100 µM (inactive) each time.
`CCOC(=O)c1c(SCCN2CCCCC2)n(-c2ccccc2)c(=S)n(-c2ccccc2)c1=O`: the GI50 with MOLT-4 was 2.28 µM (inactive); with NCI/ADR-RES it was 21.2 µM (inactive); in the test with OVCAR-3, 9.57 µM (inactive); with MDA-N it was 18.5 µM (inactive); in the test on OVCAR-8 it was 22.9 µM (inactive); in the test on UACC-62 it was 25.8 µM (inactive). Moreover, the GI50 with SN12C was 19.2 µM (inactive); in the test on SF-295, > 100 µM (inactive); in the test with HOP-92 it was 16.3 µM (inactive); in the test with HT-29, 15.3 µM (inactive); in the test on MDA-MB-231, 21.2 µM (inactive); in the test on SK-OV-3, 36.2 µM (inactive). Besides, the GI50 in the test on CCRF-CEM is 2.99 µM (inactive); in the test on ACHN, 17.7 µM (inactive); in the test with SW-620, 3.79 µM (inactive); in the test on SK-MEL-28, 8.85 µM (inactive); in the test on SNB-75 it was 15 µM (inactive); with COLO 205 it was 11.7 µM (inactive). For the same compound, the GI50 was 18.2 µM (inactive) in the test on UO-31 and 18 µM (inactive) in the test on TK-10.
For `CN(C)CCC(=O)[C@@]1(O)CC[C@H]2[C@@H]3CC=C4C[C@@H](O)CC[C@]4(C)[C@H]3CC[C@@]21C`, the GI50 in the test with MOLT-4 is 13.9 µM (inactive); in the test with NCI/ADR-RES it was 26.7 µM (inactive); with OVCAR-3 it was 9.02 µM (inactive); in the test on MDA-N, 17.7 µM (inactive); in the test on OVCAR-8, 20.2 µM (inactive); in the test with UACC-62 it was 16.7 µM (inactive). For the same compound, the GI50 in the test on SN12C was 16.9 µM (inactive); in the test on SF-295 it was 24.9 µM (inactive); in the test on HOP-92, 20.9 µM (inactive); in the test on HT-29, 18.9 µM (inactive); in the test with MDA-MB-231 it was 18.5 µM (inactive); in the test on SK-OV-3, 29.8 µM (inactive). In addition, the GI50 with CCRF-CEM was 5.25 µM (inactive); in the test with ACHN, 16.1 µM (inactive); in the test on SW-620, 17.9 µM (inactive); in the test with SK-MEL-28, 17.2 µM (inactive); with SNB-75 it was 15.2 µM (inactive); in the test with COLO 205, 18.4 µM (inactive). Besides, the values for the GI50 with UO-31 and in the test with TK-10 were 15.6 µM (inactive) and 2.1 µM (inactive), respectively.
For the compound `COc1ccc(-c2cc(-c3ccccc3)nc(/N=C\c3ccccc3)n2)c(O)c1`, the GI50 is 4.04 µM (inactive) in the test with MOLT-4; > 86.5 µM (inactive) in the test on NCI/ADR-RES; > 52.2 µM (inactive) in the test on OVCAR-3; 5.02 µM (inactive) in the test on MDA-N; > 70.1 µM (inactive) in the test with OVCAR-8; > 27.7 µM (inactive) with UACC-62. In addition, the GI50 with SN12C was > 29 µM (inactive); in the test with SF-295, 97.7 µM (inactive); in the test with HOP-92, > 100 µM (inactive); in the test with HT-29 it was > 27.9 µM (inactive); in the test with MDA-MB-231, > 31.3 µM (inactive); with SK-OV-3 it was 7.52 µM (inactive). In addition, the GI50 in the test with CCRF-CEM is 4.06 µM (inactive); in the test on ACHN it was 6.47 µM (inactive); with SW-620, 8 µM (inactive); in the test on SK-MEL-28, > 100 µM (inactive); with SNB-75 it was > 100 µM (inactive); with COLO 205, > 100 µM (inactive). For the same compound, the GI50 in the test on UO-31 was 3.99 µM (inactive); in the test on TK-10, > 100 µM (inactive).
On to `CCN(CC)CCCNc1ccc2nnn3c4ccc(O)cc4c(=O)c1c23`, for which the GI50 in the test on MOLT-4 is 0.385 µM (active); in the test on NCI/ADR-RES it was 7.14 µM (inactive); in the test on OVCAR-3, 11.4 µM (inactive); with MDA-N, 8.71 µM (inactive); in the test with OVCAR-8 it was 2.97 µM (inactive); with UACC-62, 16.6 µM (inactive). Also, the GI50 in the test on SN12C is 5.57 µM (inactive); in the test with SF-295, 9.51 µM (inactive); in the test with HOP-92, 14.6 µM (inactive); in the test on HT-29, 2.65 µM (inactive); with MDA-MB-231, 7.74 µM (inactive); in the test on SK-OV-3 it was 8.87 µM (inactive). Further, the GI50 with CCRF-CEM was 2.29 µM (inactive); with ACHN, 3.34 µM (inactive); in the test on SW-620, 2.69 µM (inactive); in the test on SK-MEL-28 it was 18 µM (inactive); in the test with SNB-75, 7.48 µM (inactive); in the test on COLO 205 it was 2.81 µM (inactive). In addition, the values for the GI50 with UO-31 and in the test with TK-10 were 0.968 µM (active) and 3.28 µM (inactive), respectively.
Consider `CCOP(=O)(OCC)OC1c2[nH]cc(C(=O)OCc3ccccc3)c2-c2cc(C(=O)OC)[nH]c2C1OC` (stereo not given), for which the GI50 is 3.58 µM (inactive) with MOLT-4; 7.53 µM (inactive) with NCI/ADR-RES; 11.2 µM (inactive) with OVCAR-3; 17.5 µM (inactive) in the test with MDA-N; 12.8 µM (inactive) in the test with OVCAR-8; 7.05 µM (inactive) with UACC-62. For the same compound, the GI50 was 16.4 µM (inactive) in the test on SN12C; 5 µM (inactive) in the test with SF-295; 4.28 µM (inactive) in the test with HOP-92; 3.24 µM (inactive) with HT-29; 2.91 µM (inactive) in the test with MDA-MB-231; 17.7 µM (inactive) with SK-OV-3. Besides, the GI50 is > 24.8 µM (inactive) with CCRF-CEM; 4.66 µM (inactive) in the test with ACHN; 14.5 µM (inactive) in the test on SW-620; 4.94 µM (inactive) in the test with SK-MEL-28; 13.2 µM (inactive) in the test on SNB-75; 6.89 µM (inactive) in the test on COLO 205. The GI50 with UO-31 is 4.57 µM (inactive); in the test with TK-10, 4.91 µM (inactive).
As for `CN(C)C(=O)Nc1cc2c3c(c1)CCCN3CCC2`, the GI50 with MOLT-4, in the test on NCI/ADR-RES, with OVCAR-3, in the test with MDA-N, with OVCAR-8 and in the test with UACC-62 was > 10 µM (inactive) throughout. The GI50 in the test with SN12C, in the test on SF-295, with HOP-92, with HT-29, in the test on MDA-MB-231 and in the test with SK-OV-3 was > 10 µM (inactive) each time. Also, the GI50 in the test with CCRF-CEM, with ACHN, in the test on SW-620, with SK-MEL-28, in the test with SNB-75 and in the test on COLO 205 was > 10 µM (inactive) each time. Moreover, the GI50 with UO-31 and in the test with TK-10 was > 10 µM (inactive) throughout.
On to `Cc1ncc([N+](=O)[O-])n1CCNCCCCn1ccnc1[N+](=O)[O-]`, for which the GI50 with MOLT-4, with NCI/ADR-RES, in the test with OVCAR-3, in the test on MDA-N, in the test on OVCAR-8 and in the test with UACC-62 was > 100 µM (inactive) throughout. Besides, the GI50 in the test on SN12C, in the test on SF-295, with HOP-92, in the test with HT-29, in the test with MDA-MB-231 and with SK-OV-3 was > 100 µM (inactive) each time. The GI50 with CCRF-CEM, in the test with ACHN, with SW-620, with SK-MEL-28, in the test with SNB-75 and in the test with COLO 205 was > 100 µM (inactive) in each case. The GI50 in the test on UO-31 and in the test with TK-10 was > 100 µM (inactive) throughout.
`O=C1C(CN2CCCC2)CCC1CN1CCCC1` (stereo not given): the GI50 in the test with MOLT-4 is 5.31 µM (inactive); with NCI/ADR-RES, 23.9 µM (inactive); in the test with OVCAR-3 it was 17.1 µM (inactive); in the test on MDA-N, 16 µM (inactive); with OVCAR-8, 18.3 µM (inactive); in the test with UACC-62, 17.5 µM (inactive). Also, the GI50 with SN12C is 26.7 µM (inactive); with SF-295, > 100 µM (inactive); in the test with HOP-92, 14.4 µM (inactive); in the test with HT-29, 20 µM (inactive); in the test with MDA-MB-231, 13.5 µM (inactive); in the test on SK-OV-3, > 100 µM (inactive). The GI50 is 3.52 µM (inactive) in the test on CCRF-CEM; 15.8 µM (inactive) in the test on ACHN; 4.12 µM (inactive) in the test on SW-620; 18.7 µM (inactive) in the test with SK-MEL-28; 17.9 µM (inactive) with SNB-75; 5.71 µM (inactive) in the test with COLO 205. The GI50 with UO-31 was 17.8 µM (inactive); in the test on TK-10 it was 18.3 µM (inactive).
For the compound `C/C(=C\COc1cc(O)c2c(c1)C(=O)c1cc(C)cc(O)c1C2=O)CCC1OC1(C)C` (stereo not given), the GI50 with MOLT-4 was 7.85 µM (inactive); in the test on NCI/ADR-RES, > 100 µM (inactive); in the test with OVCAR-3, > 100 µM (inactive); with MDA-N it was > 100 µM (inactive); in the test on OVCAR-8, 47.9 µM (inactive); with UACC-62 it was 40.3 µM (inactive). Also, the GI50 in the test with SN12C is > 100 µM (inactive); in the test on SF-295, > 100 µM (inactive); in the test with HOP-92, 29.4 µM (inactive); with HT-29, > 100 µM (inactive); in the test on MDA-MB-231, > 100 µM (inactive); in the test on SK-OV-3, > 100 µM (inactive). The GI50 is 11.2 µM (inactive) with CCRF-CEM; 40.9 µM (inactive) in the test on ACHN; > 10 µM (inactive) in the test on SW-620; > 100 µM (inactive) in the test on SK-MEL-28; 28.2 µM (inactive) in the test on SNB-75; > 100 µM (inactive) in the test on COLO 205. The results for the GI50 in the test with UO-31 and with TK-10 were > 100 µM (inactive) and 40.3 µM (inactive), respectively.
